Values quoted from earlier work as cited in patent US6353028B2, “Composition and method for topically treating Peyronie's Disease, Dupuytren's hand contracture, Ledderhose Fibrosis, erectile dysfunction arising from plaque accumulations, and scarring” (priority 1998, dated 2002).

Test system: Peyronie's disease
Details: intra-lesional injection

Compound: COc1ccc(CCN(C)CCCC(C#N)(c2ccc(OC)c(OC)c2)C(C)C)cc1OC (stereo not shown) [Verapamil]
- success of intra-lesional injections in Peyronie's disease: very limited success
